{"source": "patent US9079859B2", "about": "“Synthetic lethal targeting of glucose transport” (AUCKLAND UNISERVICES LIMITED, priority 2011, dated 2015)", "key": {"RCC4 and RCC4/VHL cells": {"test_system": "RCC4 and RCC4/VHL cells", "assay_type": "cell-based", "description": "Cell Viability Assays. For 2,3-bis[2-methoxy-4-nitro-5-sulfophenyl]-2H-tetrazolium-5-carboxanilide (XTT) assays, five thousand cells were plated in 96-well plates. The next day, vehicle (DMSO) or drug was added by serial dilution. Four days later, media were aspirated, XTT solution (0.3 mg/ml of XTT (Sigma), […] N-methyl dibenxopyrazine methyl sulfate (Sigma) in phenol red-free media) was added, and the plates were incubated at 37° C. for 1-2 hours. Metabolism of XTT was quantified by measuring the absorbance at 450 nm. IC50s were calculated using linear interpolation. For clonogenic survival assays, three hundred cells were plated per 60 mm tissue culture dish. The cells were allowed to attach overnight and then treated with vehicle or drug for 14 days. Colonies were fixed and stained with crystal violet (0.1% crystal violet in 95% ethanol). All conditions were measured in triplicate and each experiment was done in duplicate or triplicate. To determine necrosis, cells were treated with drug for a given time point. Media and cells were collected, centrifugated, and resuspended in 0.4% trypan blue (Invitrogen). Live and dead cells were counted on a hematocytometer."}, "RCC4 cells": {"test_system": "RCC4 cells", "test": "Glucose uptake (2-deoxy-D-[3H]glucose), RCC4", "assay_type": "cell-based", "description": "Glucose Uptake. One hundred thousand cells were plated per well in a six-well plate. The next day, cells were treated with the indicated concentration of drug and incubated for the indicated time. Cells were then washed twice with phosphate-buffered saline, incubated in low-glucose medium for 30 minutes, and 3H-2-deoxyglucose (0.5 μCi) was added in 1 ml of glucose-free media for an additional hour. Cells were washed twice in PBS and lysed (0.2 N NaOH and 0.2% sodium dodecyl sulfate). Glucose uptake was quantified with a scintillation counter."}, "786-O xenograft tumors": {"test_system": "786-O xenograft tumors", "test": "FDG-PET imaging of glucose uptake in renal carcinoma xenograft", "assay_type": "in vivo, mice", "conditions": "three daily doses (STF-35 11.6 mg/kg i.p.)", "description": "In Vivo Studies. All experiments were approved by Stanford's Administrative Panel on Laboratory Animal Care (APLAC) and in accordance with both institutional and national guidelines. Five million cells were implanted subcutaneously into the flanks of nude mice (4-6 weeks old)(Charles River Laboratories). Tumors were measured with calipers. Volume was calculated by the following formula: width^2×0.5 length. Once tumors reached an average size of >20 mm^3, mice were randomized into vehicle (DMSO diluted in 16% cremaphor EL/PBS) or treated groups. Mice were treated with STF-35 (11.6 mg/kg for the first 3 days, followed by 7.8 mg/kg for the 7-9 days). Five-micron sections were cut for immunohistochemistry. Sections were counterstained with hematoxylin and eosin. For 2-[^18F]-fluoro-2-deoxy-glucose-positron emission tomography imaging, mice bearing tumors were fasted overnight. The next day, the mice were anesthetized with 2% isoflurane and injected intraperitoneally with 250 μCi of FDG. Mice were imaged for 10 minutes at one hour post-injection, using a Rodent R4 microPET system (Concorde Microsystems). Data were reconstructed into three-dimensional volumes using an ordered subset expectation maximization algorithm and were calibrated into units of percent injected dose per gram."}, "LC3": {"test_system": "LC3", "conditions": "leading to cell death; cited from earlier work"}, "[1]": {"conditions": "short-term (XTT) and/or long-term (clonogenic) survival assays"}}, "note": "Where two headings read alike, the source gives them in different places."}
{"smiles": "O=CC[C@@H](O)[C@H](O)[C@H](O)CO", "note": "[2-DG, 2-deoxy-D-glucose]", "values": [{"measurement": "cytotoxicity to RCC4 and RCC4/VHL cells", "setting": "RCC4 and RCC4/VHL cells", "value": "not cytotoxic"}]}
{"smiles": "Cc1cccc(Nc2nc(-c3ccncc3)cs2)c1", "note": "[STF-62247]", "values": [{"measurement": "glucose uptake in VHL-defective cells, analogs and control cytotoxins", "setting": "RCC4 cells", "value": "did not decrease"}, {"measurement": "glucose (FDG) uptake within the tumors by FDG-PET", "setting": "786-O xenograft tumors", "value": "did not have a decrease"}, {"measurement": "autophagy in VHL-deficient RCCs", "setting": "LC3", "value": "induce autophagy"}]}
{"smiles": "O=C(O)C(=O)CBr", "note": "[bromopyruvate]", "values": [{"measurement": "cytotoxicity to RCC4 and RCC4/VHL cells", "setting": "RCC4 and RCC4/VHL cells; [1]", "value": "toxic to both"}]}
{"smiles": "Clc1ccccc1C(c1ccccc1)(c1ccccc1)n1ccnc1", "note": "[clotrimazole]", "values": [{"measurement": "cytotoxicity to RCC4 and RCC4/VHL cells", "setting": "RCC4 and RCC4/VHL cells", "value": "toxic to both"}]}
{"smiles": "CC(=O)CC(=O)Nc1ccc(Cl)c(C(F)(F)F)c1", "note": "[fasentin]", "values": [{"measurement": "cytotoxicity to RCC4 and RCC4/VHL cells", "setting": "RCC4 and RCC4/VHL cells; [1]", "value": "relatively non-toxic"}]}
{"smiles": "O=C(O)c1nn(Cc2ccc(Cl)cc2Cl)c2ccccc12", "note": "[lonidamine]", "values": [{"measurement": "cytotoxicity to RCC4 and RCC4/VHL cells", "setting": "RCC4 and RCC4/VHL cells", "value": "toxic to both"}]}
{"smiles": "O=C(CCc1ccc(O)cc1)c1c(O)cc(O)cc1O", "note": "[phloretin]", "values": [{"measurement": "cytotoxicity to RCC4 and RCC4/VHL cells", "setting": "RCC4 and RCC4/VHL cells", "value": "toxic to both"}]}
